Measurements as given in patent US9790215B2 (FLATLEY DISCOVERY LAB, LLC, priority 2013, dated 2017).

Biological target: T1, human ΔF508-CFTR (Homo sapiens, UniProt P13569, DEL508-508)
T1 construct: expressed in transfected cells
Test: CFTR-YFP High Throughput Assay (YFP halide flux in FRT cells)
Assay type: cell-based
Details: FRT cells expressing human ΔF508-CFTR and YFP; forskolin stimulated
Procedure, shortened: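 FRT cells stably co-expressing human ΔF508-CFTR and halide-sensitive YFP-H148Q/I152L were treated with compound […] for 24–26 h at 37 °C (corrector mode), washed, then stimulated with 20 μM forskolin plus 30 μM potentiator P3 for 60–120 min at room temperature. Iodide-induced YFP quench (ex 500/em 540 nm) rates came from least-squares fitting.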

T1 sequence (P13569 with tags, fused parts or gaps DEL508-508): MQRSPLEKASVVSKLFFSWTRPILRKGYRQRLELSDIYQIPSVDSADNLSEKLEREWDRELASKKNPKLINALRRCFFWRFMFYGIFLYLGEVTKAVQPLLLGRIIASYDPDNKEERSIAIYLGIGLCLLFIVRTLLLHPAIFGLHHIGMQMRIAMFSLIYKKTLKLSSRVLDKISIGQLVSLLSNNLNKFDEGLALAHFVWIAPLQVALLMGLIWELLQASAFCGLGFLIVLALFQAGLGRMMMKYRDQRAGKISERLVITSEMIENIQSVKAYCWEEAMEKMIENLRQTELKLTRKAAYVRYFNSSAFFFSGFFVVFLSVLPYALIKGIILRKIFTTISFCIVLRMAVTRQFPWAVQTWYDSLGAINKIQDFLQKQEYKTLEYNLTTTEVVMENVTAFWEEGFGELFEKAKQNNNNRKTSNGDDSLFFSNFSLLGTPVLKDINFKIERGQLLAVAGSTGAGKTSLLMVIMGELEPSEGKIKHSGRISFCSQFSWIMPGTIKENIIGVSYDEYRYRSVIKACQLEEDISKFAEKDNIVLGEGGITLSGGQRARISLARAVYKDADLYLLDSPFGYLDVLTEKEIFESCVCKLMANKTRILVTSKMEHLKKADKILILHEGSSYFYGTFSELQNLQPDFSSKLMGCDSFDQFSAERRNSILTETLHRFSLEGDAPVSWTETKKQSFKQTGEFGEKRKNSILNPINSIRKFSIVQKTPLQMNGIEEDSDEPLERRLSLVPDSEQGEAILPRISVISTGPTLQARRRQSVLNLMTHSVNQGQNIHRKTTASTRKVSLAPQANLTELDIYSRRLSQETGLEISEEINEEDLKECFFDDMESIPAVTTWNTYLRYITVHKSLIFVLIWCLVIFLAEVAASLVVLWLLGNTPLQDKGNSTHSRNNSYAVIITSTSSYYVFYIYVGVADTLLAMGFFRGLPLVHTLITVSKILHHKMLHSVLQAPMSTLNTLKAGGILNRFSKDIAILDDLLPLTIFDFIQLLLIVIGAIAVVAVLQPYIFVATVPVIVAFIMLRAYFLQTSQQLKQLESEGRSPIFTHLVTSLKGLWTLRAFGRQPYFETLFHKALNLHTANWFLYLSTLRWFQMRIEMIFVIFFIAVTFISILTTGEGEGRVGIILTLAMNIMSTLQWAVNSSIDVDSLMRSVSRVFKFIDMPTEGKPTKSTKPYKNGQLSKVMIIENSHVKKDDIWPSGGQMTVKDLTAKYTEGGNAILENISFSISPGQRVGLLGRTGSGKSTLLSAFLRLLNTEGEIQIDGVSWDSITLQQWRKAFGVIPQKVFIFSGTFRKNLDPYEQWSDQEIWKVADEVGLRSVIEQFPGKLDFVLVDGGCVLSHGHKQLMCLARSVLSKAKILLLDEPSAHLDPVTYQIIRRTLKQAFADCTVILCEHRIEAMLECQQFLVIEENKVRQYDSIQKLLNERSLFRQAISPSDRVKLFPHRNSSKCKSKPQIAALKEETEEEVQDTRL

First: CCN(C(=O)Cn1ncc2c(c1=O)c1ccccc1n2Cc1ccccn1)c1ccc2c(c1)OC(F)(F)O2 [Example 85, N-(2,2-difluorobenzo[d][1,3]dioxol-5-yl)-N-ethyl-2-(1-oxo-5-(pyridin-2-ylmethyl)-1H-pyridazino[4,5-b]indol-2(5H)-yl)acetamide]
Second: CCN(C(=O)Cn1ncc2c(c1=O)c1ccccc1n2Cc1ccccc1)c1ccc2c(c1)OC(F)(F)O2 [Example 87, 2-(5-benzyl-1-oxo-1H-pyridazino[4,5-b]indol-2(5H)-yl)-N-(2,2-difluorobenzo[d][1,3]dioxol-5-yl)-N-ethylacetamide]
The EC50 of the first is higher: 10 to 20 µM for the first, under 10 µM for the second. The second is the more potent here.

`CCN(C(=O)Cn1ncc2c(c1=O)c1ccccc1n2CCOC)c1ccc2c(c1)OC(F)(F)O2` [Example 86, N-(2,2-difluorobenzo[d] [1,3]dioxol-5-yl)-N-ethyl-2-(5-(2-methoxyethyl)-1-oxo-1H-pyridazino[4,5-b]indol-2(5H)-yl)acetamide] and `CCN(C(=O)Cn1ncc2c(c1=O)c1ccccc1n2CCCOC)c1ccc2c(c1)OC(F)(F)O2` [Example 91, N-(2,2-difluorobenzo[d] [1,3]dioxol-5-yl)-N-ethyl-2-(5-(3-methoxypropyl)-1-oxo-1H-pyridazino[4,5-b]indol-2(5H)-yl)acetamide] cannot be ordered by EC50: under 10 µM for the first, under 10 µM for the second.

`CCN(C(=O)Cn1ncc2c(c1=O)c1ccccc1n2CCC(=O)OC)c1ccc2c(c1)OC(F)(F)O2` [Example 88, methyl 3-(2-(2-((2,2-difluorobenzo[d][1,3]dioxol-5-yl)(ethyl)amino)-2-oxoethyl)-1-oxo-1H-pyridazino[4,5-b]indol-5(2H)-yl)propanoate] and `CCN(C(=O)Cn1ncc2c(c1=O)c1ccccc1n2CCC#N)c1ccc2c(c1)OC(F)(F)O2` [Example 92, 2-(5-(2-cyanoethyl)-1-oxo-1H-pyridazino[4,5-b]indol-2(5H)-yl)-N-(2,2-difluorobenzo[d][1,3]dioxol-5-yl)-N-ethylacetamide] cannot be ordered by EC50: under 10 µM for the first, under 10 µM for the second.

`CCN(C(=O)Cn1ncc2c(c1=O)c1ccccc1n2Cc1cccc(OC)c1)c1ccc2c(c1)OC(F)(F)O2` [Example 89, N-(2,2-difluorobenzo[d] [1,3]dioxol-5-yl)-N-ethyl-2-(5-(3-methoxybenzyl)-1-oxo-1H-pyridazino[4,5-b]indol-2(5H)-yl)acetamide] and `CCN(C(=O)Cn1ncc2c(c1=O)c1ccccc1n2Cc1ccc(OC)cc1)c1ccc2c(c1)OC(F)(F)O2` [Example 90, N-(2,2-difluorobenzo[d][1,3]dioxol-5-yl)-N-ethyl-2-(5-(4-methoxy-benzyl)-1-oxo-1H-pyridazino[4,5-b]indol-2(5H)-yl)acetamide] fall in the same range of EC50: 10 to 20 µM for the first, 10 to 20 µM for the second.

`CCN(C(=O)Cn1ncc2c(c1=O)c1ccccc1n2CC#N)c1ccc2c(c1)OC(F)(F)O2` [Example 93, 2-(5-(cyanomethyl)-1-oxo-1H-pyridazino[4,5-b]indol-2(5H)-yl)-N-(2,2-difluorobenzo[d][1,3]dioxol-5-yl)-N-ethylacetamide] and `CCN(C(=O)Cn1ncc2c(c1=O)c1ccccc1n2Cc1ccccc1C#N)c1ccc2c(c1)OC(F)(F)O2` [Example 95, 2-(5-(2-cyanobenzyl)-1-oxo-1H-pyridazino[4,5-b]indol-2(5H)-yl)-N-(2,2-difluorobenzo[d][1,3]dioxol-5-yl)-N-ethylacetamide] cannot be ordered by EC50: under 10 µM for the first, under 10 µM for the second.

`CCN(C(=O)Cn1ncc2c(c1=O)c1ccccc1n2Cc1cccnc1)c1ccc2c(c1)OC(F)(F)O2` [Example 94, N-(2,2-difluorobenzo[d][1,3]dioxol-5-yl)-N-ethyl-2-(1-oxo-5-(pyridin-3-ylmethyl)-1H-pyridazino[4,5-b]indol-2(5H)-yl)acetamide] and `CCN(C(=O)Cn1ncc2c(c1=O)c1ccccc1n2Cc1ccncc1)c1ccc2c(c1)OC(F)(F)O2` [Example 97, N-(2,2-difluorobenzo[d] [1,3]dioxol-5-yl)-N-ethyl-2-(1-oxo-5-(pyridin-4-ylmethyl)-1H-pyridazino[4,5-b]indol-2(5H)-yl)acetamide] cannot be ordered by EC50: under 10 µM for the first, under 10 µM for the second.

`CCN(C(=O)Cn1ncc2c(c1=O)c1ccccc1n2Cc1cccc(C#N)c1)c1ccc2c(c1)OC(F)(F)O2` [Example 96, 2-(5-(3-cyanobenzyl)-1-oxo-1H-pyridazino[4,5-b]indol-2(5H)-yl)-N-(2,2-difluorobenzo[d][1,3]dioxol-5-yl)-N-ethylacetamide] and `Cc1ccc(-n2nc(C(=O)N(CC#N)c3ccccc3)c3c4ccccc4n(C)c3c2=O)cc1` [Example 105, N-(cyanomethyl)-5-methyl-4-oxo-N-phenyl-3-(p-tolyl)-4,5-dihydro-3H-pyridazino[4,5-b]indole-1-carboxamide] cannot be ordered by EC50: under 10 µM for the first, under 10 µM for the second.

`Cc1ccc(-n2nc(C(=O)N3CCCCC3)c3c4ccccc4n(C)c3c2=O)cc1` [Example 101, 5-methyl-1-(piperidine-1-carbonyl)-3-p-tolyl-3H-pyridazino[4,5-b]indol-4(5H)-one] and `Cc1ccc(-n2nc(C(=O)N3CCCc4ccccc43)c3c4ccccc4n(C)c3c2=O)cc1` [Example 110, 5-methyl-1-(1,2,3,4-tetrahydroquinoline-1-carbonyl)-3-(p-tolyl)-3H-pyridazino[4,5-b]indol-4(5H)-one] cannot be ordered by EC50: under 10 µM for the first, under 10 µM for the second.

`CCN(C(=O)c1nn(-c2ccccc2)c(=O)c2c1c1ccccc1n2C)c1ccncn1` [Example 102, N-ethyl-5-methyl-4-oxo-3-phenyl-N-(pyrimidin-4-yl)-4,5-dihydro-3H-pyridazino[4,5-b]indole-1-carboxamide] and `CCN(C(=O)c1nn(-c2ccccc2)c(=O)c2c1c1ccccc1n2C)c1ccncc1` [Example 109, N-ethyl-5-methyl-4-oxo-3-phenyl-N-(pyridin-4-yl)-4,5-dihydro-3H-pyridazino[4,5-b]indole-1-carboxamide] cannot be ordered by EC50: under 10 µM for the first, under 10 µM for the second.

`Cc1ccc(-n2nc(C(=O)N(c3ccccc3)C(C)C)c3c4ccccc4n(C)c3c2=O)cc1` [Example 103, N-isopropyl-5-methyl-4-oxo-N-phenyl-3-(p-tolyl)-4,5-dihydro-3H-pyridazino[4,5-b]indole-1-carboxamide] and `Cc1ccc(-n2nc(C(=O)N(c3ccccc3)C3CC3)c3c4ccccc4n(C)c3c2=O)cc1` [Example 104, N-cyclopropyl-5-methyl-4-oxo-N-phenyl-3-(p-tolyl)-4,5-dihydro-3H-pyridazino[4,5-b]indole-1-carboxamide] cannot be ordered by EC50: under 10 µM for the first, under 10 µM for the second.

`CCN(CC)C(=O)c1nn(-c2ccc(C)cc2)c(=O)c2c1c1ccccc1n2C` [Example 106, N,N-diethyl-5-methyl-4-oxo-3-(p-tolyl)-4,5-dihydro-3H-pyridazino[4,5-b]indole-1-carboxamide] and `CCN(C(=O)c1nn(-c2ccc(C)cc2)c(=O)c2c1c1ccccc1n2C)C1CC1` [Example 111, N-cyclopropyl-N-ethyl-5-methyl-4-oxo-3-(p-tolyl)-4,5-dihydro-3H-pyridazino[4,5-b]indole-1-carboxamide] cannot be ordered by EC50: under 10 µM for the first, under 10 µM for the second.

`CCN(C(=O)c1nn(-c2ccc(C)cc2)c(=O)c2c1c1ccccc1n2C)c1ccccn1` [Example 107, N-ethyl-5-methyl-4-oxo-N-(pyridin-2-yl)-3-(p-tolyl)-4,5-dihydro-3H-pyridazino[4,5-b]indole-1-carboxamide] and `CCN(C(=O)c1nn(-c2ccc(C)cc2)c(=O)c2c1c1ccccc1n2C)c1cccnc1` [Example 108, N-ethyl-5-methyl-4-oxo-N-(pyridin-3-yl)-3-(p-tolyl)-4,5-dehydro-3H-pyridazino[4,5-b]indole-1-carboxamide] cannot be ordered by EC50: under 10 µM for the first, under 10 µM for the second.
